Test results from patent US20200281908A1, “MEANS FOR TREATING DEMENTIA OF VARIOUS ETIOLOGY” (priority 2016, published 2020).

Tests used:
[1] = tested on: CPAR amnesia caused by MES in rats; assay: CPAR (conditioned passive avoidance reflex) amnesia caused by maximal electroshock seizure (MES); format: in vivo, rat; conditions: n = 10; for CPAR recalling test 24 hours later: Latent time of the reflex / CPAR training Latent time of the reflex: M ± m
From the text: Example 1. The aim of the study is to assess the effect of the liposomal formulation of methyl 4-[2-oxo-1,2-bis[[2-(4-pyridinyl)ethyl]amino]ethyl]benzoate succinate on conditioned passive avoidance reflex (CPAR) amnesia caused by maximal electroshock seizure (MES) in comparison with the pharmaceutical substance of this compound and piracetam in rats.
CPAR is a basic method for studying the effects of drugs affecting memory in any manner whatsoever. When exposed to CPAR, it is possible to identify both memory improvement and its deterioration (amnesic effect). CPAR is based on the inborn hole exploratory behaviour of rodents—the tendency to hide in a limited darkened space.
The apparatus for studying the action of drugs is a dark chamber with an electrode floor. The dark chamber is connected through a square guillotine door with a hinged platform. The hinged platform is illuminated by a 60 watt lamp. The dark chamber is located oil the laboratory table, and the platform hangs above the floor at a height of 800 mm.
First, CPAR was developed in rats. Rats were placed on a lighted platform in from of the dark chamber of the apparatus with their tail toward the inlet and recorded latent time of the reflex. Then, in the dark chamber, the rat received a single 10-second pain stimulation with an electric current (0.3 mA) through the electrode floor (training)
Amnesia was invoked by MES Electric stimulus (250 V, 115-120 mA, 50 Hz, for 0.1 sec) for obtaining MES was applied to the rat through special cornal (ocular) electrodes, previously soaked in saline MES was performed directly after CPAR training.
Experimental groups. The animals were divided into 7 arms: • Arm I: control without amnesia (saline). • Arm II: control with amnesia (MES) • Arm III: Prototype 0.25 mg/kg+MES. • Arm IV: Prototype 1.0 mg/kg+MES. • Arm V: Current liposomal formulation 0.25 mg/kg+MES. • Arm VI: Current liposomal formulation 1.0 mg/kg+MES. • Arm VII: Piracetam 400 mg/kg+MES.
The prototype and the current liposomal composition were administered intragastrically. Piracetam was administered once intraperitoneally 40 minutes before the experiment

[2] = tested on: streptozotocin-induced rat model of AD; assay: CPAR test on a streptozotocin-induced rat model of AD; format: in vivo; conditions: for Latent period of going into the dark chamber, Recalling, 24 hours later / Latent period of going into the dark chamber, Recalling, 7 days later / Latent period of going into the dark chamber, Recalling, 14 days later / Latent period of going into the dark chamber, Training LP1 / Number of animals with amnesia that went into the dark chamber during the CPAR recalling test/Number of animals in the group, 24 hours later / Number of animals with amnesia that went into the dark chamber during the CPAR recalling test/Number of animals in the group, 7 days later / Number of animals with amnesia that went into the dark chamber during the CPAR recalling test/Number of animals in the group, 14 days later / percentage of rats with reflex impairment (went into the dark chamber), 24 hours later / percentage of rats with reflex impairment (went into the dark chamber), 7 days later / percentage of rats with reflex impairment (went into the dark chamber), 14 days later: rats, n = 12; for Latent period of going into the dark chamber, Recalling, 24 hours later / Latent period of going into the dark chamber, Recalling, 7 days later / Latent period of going into the dark chamber, Recalling, 14 days later / Latent period of going into the dark chamber, Training LP1: M ± m
Experimental: Example 2. The aim of the study is to assess the specific pharmacological activity of the liposomal formulation of methyl 4-[2-oxo-1,2-bis[[2-(4-pyridinyl)ethyl]amino]ethyl]benzoate succinate in comparison with the pharmaceutical substance of this compound and memantine on memory loss when modelling AD using neurotoxin streptozotocin in rats.
In this study, the modelling of AD was performed using the procedure recommended in the Methodological Recommendations for the preclinical study of nootropic drugs.
According to the procedure, AD modeling was performed by introducing streptozotocin toxin into the cerebral ventricles of the rat.
The surgical neurotoxin injection into the brain was performed in anaesthetized animals (with chloral hydrate at a dose of 200 mg/kg, ip) in a stereotaxic apparatus.
First, the cranial trepanation was performed in animals according to the stereotaxic coordinates; AP (1.0), L (1.5-2). Streptozotocin at a dose of 3 mg/kg was injected bilaterally into the lateral ventricles of the brain according to the stereotaxic coordinates: AP (1.0): L (1.5-2): H (3.0). The toxin was injected at a rate of 0.1 μl per minute; the injected solution volume was 5 μl in each ventricle
The cranial trepanation of the control (sham-operated) animals was performed according to the stereotaxic coordinates: AP (1.0): L (1.5-2), and distilled water was then injected bilaterally into the lateral ventricles of the brain also according to the stereotaxic coordinates, in the same volume and at the same rate as the studied drugs.
1 hour after surgery, the intragastric administration of substances to rats started, which continued for 14 days.
The test pharmaceutical substance (Prototype) and the current liposomal formulation of this compound were administered to rats in 2 doses of 0.25 mg/kg and 1 mg/kg. Memantine at a dose of 1 mg/kg. Distilled water was administered to control animals.
The day after the last injection of substances, procedures that allow testing the training and memory of animals started.
Evaluation of the antiamnesic effect of PAM-12 in comparison with memantine was performed using the CPAR method. A detailed description of the CPAR method is given in Example 1. […] Memory loss was determined in the terms of the reduction of the latent time of the CPAR and increase in the number of animals that went into the dark chamber during reflex recalling test, compared to that of the control
The animals were randomly divided into 8 arms.
1. Intact control—distilled water, intragastrically (i.g.), 14 days-12 rats.
2. Control—sham-operated animals—distilled water, i.g. 14 days-12 rats.
3. Active control—injection of streptozotocin (STZ) 3 mg/kg into the cerebral ventricles+distilled water, i.g., 14 days-12 rats
4. Prototype 0.25 mg/kg, i.g., 14 days: the first injection 1 hour after the injection of STZ into the cerebral ventricles and then daily for 14 days-12 rats.
5. Prototype 1.0 mg/kg, i.g., 14 days: the first injection 1 hour after the injection of STZ into the cerebral ventricles and then daily for 14 days-12 rats.
6. Current liposomal formulation 0.25 mg/kg, i.g., 14 days: the first injection 1 hour after the injection of STZ into the cerebral ventricles and then daily for 14 days-12 rats
7. Current liposomal formulation 1.0 mg/kg, i.g., 14 days: the first injection 1 hour after the injection of STZ into the cerebral ventricles and then daily for 14 days-12 rats.
8. Memantine 1 mg/kg. i.g., 14 days: the first injection 1 hour after the injection of STZ into the cerebral ventricles and then daily for 14 days-12 rats.

[3] = 0.25 mg/kg once intragastrically + MES
[4] = 1 mg/kg once intragastrically + MES
[5] = 1.0 mg/kg i.g. + STZ (memantine printed p.o.)
[6] = 400 mg/kg once intraperitoneally + MES

Compound: COC(=O)c1ccc(C(NCCc2ccncc2)C(=O)NCCc2ccncc2)cc1.O=C(O)CCC(=O)O (stereo not shown) [Prototype, methyl 4-[2-oxo-1,2-bis[[2-(4-pyridinyl)ethyl]amino]ethyl]benzoate succinate]
- CPAR recalling test 24 hours later: Latent time of the reflex [1, 3]: 107.86 ± 15.12 s
- CPAR training Latent time of the reflex [1, 3]: 20.38 ± 4.38 s
- CPAR recalling test 24 hours later: Latent time of the reflex [1, 4]: 118.13 ± 17.26 s
- CPAR training Latent time of the reflex [1, 4]: 13.29 ± 2.78 s
- Latent period of going into the dark chamber, Recalling, 24 hours later ([2]; 0.25 mg/kg i.g. 14 days + STZ): 133.1 ± 13.3 s
- Latent period of going into the dark chamber, Recalling, 7 days later ([2]; 0.25 mg/kg i.g. 14 days + STZ): 121.3 ± 17.8 s
- Latent period of going into the dark chamber, Recalling, 14 days later ([2]; 0.25 mg/kg i.g. 14 days + STZ): 102.8 ± 19.4 s
- Latent period of going into the dark chamber, Training LP1 ([2]; 0.25 mg/kg i.g. 14 days + STZ): 24.3 ± 5.1 s
- Number of animals with amnesia that went into the dark chamber during the CPAR recalling test/Number of animals in the group, 24 hours later ([2]; 0.25 mg/kg i.g. + STZ): 4/12
- Number of animals with amnesia that went into the dark chamber during the CPAR recalling test/Number of animals in the group, 7 days later ([2]; 0.25 mg/kg i.g. + STZ): 5/12
- Number of animals with amnesia that went into the dark chamber during the CPAR recalling test/Number of animals in the group, 14 days later ([2]; 0.25 mg/kg i.g. + STZ): 6/12
- percentage of rats with reflex impairment (went into the dark chamber), 24 hours later ([2]; 0.25 mg/kg i.g. + STZ): 33.3%
- percentage of rats with reflex impairment (went into the dark chamber), 7 days later ([2]; 0.25 mg/kg i.g. + STZ): 41.7%
- percentage of rats with reflex impairment (went into the dark chamber), 14 days later ([2]; 0.25 mg/kg i.g. + STZ): 50%
- Latent period of going into the dark chamber, Recalling, 24 hours later ([2]; 1.0 mg/kg i.g. 14 days + STZ): 147.7 ± 16.2 s
- Latent period of going into the dark chamber, Recalling, 7 days later ([2]; 1.0 mg/kg i.g. 14 days + STZ): 132.3 ± 2.8 s
- Latent period of going into the dark chamber, Recalling, 14 days later ([2]; 1.0 mg/kg i.g. 14 days + STZ): 124.9 ± 20.3 s
- Latent period of going into the dark chamber, Training LP1 ([2]; 1.0 mg/kg i.g. 14 days + STZ): 30.1 ± 12.1 s
- Number of animals with amnesia that went into the dark chamber during the CPAR recalling test/Number of animals in the group, 24 hours later [2, 5]: 3/12
- Number of animals with amnesia that went into the dark chamber during the CPAR recalling test/Number of animals in the group, 7 days later [2, 5]: 4/12
- Number of animals with amnesia that went into the dark chamber during the CPAR recalling test/Number of animals in the group, 14 days later [2, 5]: 5/12
- percentage of rats with reflex impairment (went into the dark chamber), 24 hours later [2, 5]: 25%
- percentage of rats with reflex impairment (went into the dark chamber), 7 days later [2, 5]: 33.3%
- percentage of rats with reflex impairment (went into the dark chamber), 14 days later [2, 5]: 41.7%

Compound: CC12CC3CC(C)(C1)CC(N)(C3)C2 [Memantine]
- antiamnesic effect in rats of the streptozotocin-induced AD model ([2]; 1 mg/kg): pronounced antiamnesic effect
- Latent period of going into the dark chamber, Recalling, 24 hours later ([2]; 1.0 mg/kg i.g. 14 days + STZ): 166.4 ± 13.6 s
- Latent period of going into the dark chamber, Recalling, 7 days later ([2]; 1.0 mg/kg i.g. 14 days + STZ): 166.4 ± 13.6 s
- Latent period of going into the dark chamber, Recalling, 14 days later ([2]; 1.0 mg/kg i.g. 14 days + STZ): 143.5 ± 19.2 s
- Latent period of going into the dark chamber, Training LP1 ([2]; 1.0 mg/kg i.g. 14 days + STZ): 20.4 ± 3.4 s
- Number of animals with amnesia that went into the dark chamber during the CPAR recalling test/Number of animals in the group, 24 hours later [2, 5]: 1/12
- Number of animals with amnesia that went into the dark chamber during the CPAR recalling test/Number of animals in the group, 7 days later [2, 5]: 1/12
- Number of animals with amnesia that went into the dark chamber during the CPAR recalling test/Number of animals in the group, 14 days later [2, 5]: 3/12
- percentage of rats with reflex impairment (went into the dark chamber), 24 hours later [2, 5]: 8.3%
- percentage of rats with reflex impairment (went into the dark chamber), 7 days later [2, 5]: 8.3%
- percentage of rats with reflex impairment (went into the dark chamber), 14 days later [2, 5]: 25%
- number of rats who forgot about the pain stimulation, times less compared to Active Control group ([2]; 1 mg/kg, 24 hours after the CPAR training): 5 times
- number of rats who forgot about the pain stimulation, times less compared to Active Control group ([2]; 1 mg/kg, 7 days after the CPAR training): 7 times
- latent period longer than in the Active control group ([2]; 1 mg/kg, 7 days later): 1.5 times
- number of rats who forgot about the pain stimulation, times less compared to Active Control group ([2]; 1 mg/kg, 14 days after the CPAR training): 2.7 times
- latent period longer than in the Active control group ([2]; 1 mg/kg, 14 days later): 1.9 times

Compound: NC(=O)CN1CCCC1=O [Piracetam]
- CPAR recalling test 24 hours later: Latent time of the reflex [1, 6]: 97.17 ± 21.43 s
- CPAR training Latent time of the reflex [1, 6]: 19.11 ± 5.28 s
- CPAR recalling test 24 hours later: Number of animals that did not go into the dark chamber, % [1, 6]: 50%
